The experiment deals with pond water supporting algal and protozoan life, inoculated with bacterium escherichia coli. The experiment is described as follows: Plate count test on pond water sample inoculated with escherichia coli. In kind it is cell-based. The note with it: for population (plate count): after five days, untreated sample 100 organisms per milliliter. The protocol: A sample of pond water was obtained. […] The pond water was inoculated with a large population of bacterium escherichia coli. A plate count test was run on the pond water sample to determine the population. […] Dilution was performed with pond water to yield a population that would register on a plate count test. One liter of the sample was removed and left untreated.
A second one liter portion was taken from the pond water sample. A composition of about 2% active zinc sulfate was mixed with the water sample to yield active zinc at about 0.1 ppm.
A third one liter portion was taken from the pond water sample. A composition of about 2% active zinc sulfate was mixed with the water sample to yield active zinc at about 10.0 ppm.
A fourth one liter portion was taken from the pond water sample. A zinc chelated product was prepared containing about 2% active zinc sulfate which was chelated on a 1:1 molar ratio with 1-hydroxyethane 1,1-diphosphonic acid (HEDPA). The chelated zinc product was added to the sample to yield chelated zinc at about 0.1 ppm.
A fifth one liter portion was taken from the pond water sample. A zinc chelated product was prepared containing about 2% active zinc sulfate which was chelated on a 1:1 molar ratio with HEDPA. The chelated zinc product was added to the sample to yield chelated zinc at about 10.0 ppm.

`O=S(=O)([O-])[O-].[Zn+2]` [active zinc, zinc sulfate]: the “population (plate count)” value reads like this: (about 0.1 ppm in one liter pond water sample) 1 organism per milliliter; (about 10.0 ppm in one liter pond water sample) 6 organisms per milliliter. Besides, the “treatment of biological fouling (in words)” value (about 10.0 ppm, compared to the untreated sample) was “effective treatment”.
